≈ marks a conversion by molar mass, not a printed value.
Key:
Format in all cases: physicochemical
physchem = experiment: physchem
From the text: (§1) The solubility of pure allantoin at room temperature is 0.6 wt. % in water, 1.0 wt. % in glycerol and 0.3 wt. % in 50 vol. % aqueous solution of ethyl alcohol. In contrast, the solubilities of the compounds of the present invention in the aforementioned solvents are shown in Table I. It will be understood from Table I that all compounds of the present invention can be dissolved to make present in the solution much more allantoin than can be obtained by dissolving allantoin, per se.

[1] = Solubility (wt.% at 20° C.) in water and alcohol-water solutions; settings: for solubility: water
From the text: as §1
Solubility (wt.% at 20° C.)

[2] = pH of a saturated solution in water
From the text: Referring to the pH of a saturated solution obtained by dissolving the compounds of the present invention, respectively, in water, the solution pH of allantoin/arginine molecular compound was 8.5, that of allantoin/ornithine molecular compound was 9.0 and that of allantoin/lysine compound was 8.9. When the pH of the respective saturated solutions of compounds according to the invention was adjusted, with HCl solution, to the pH value of a saturated solution of pure allantoin in water, namely 5 to 6, and even though the saturated solutions of the compounds according to the invention contain a higher concentration of allantoin than that of a saturated solution of pure allantoin, no crystals of allantoin precipitated from the respective solutions of compounds according to the invention.

[3] = Dissolved amount of allantoin component of the compounds; settings: 20° C.
From the text: as §1
Also, comparing the dissolved amount of the allantoin component of the compounds according to the present invention and that allantoin, per se, the former is about fifteen times greater than that of allantoin, per se, and the effects of allantoin are thereby improved.

SMILES	Solubility of pure allantoin in 50 vol. % aqueous solution of ethyl alcohol (physchem) [wt. %]	Solubility of pure allantoin in glycerol (physchem) [wt. %]	solubility (physchem; water) [mg/mL]	Solubility in 50% ethyl alcohol-water solution [1] [wt.%]	Solubility in 50% isopropyl alcohol-water solution [1] [wt.%]	Solubility in 50% methyl alcohol-water solution [1] [wt.%]	solubility [1] [mg/mL]	pH of a saturated solution in water [2]	Dissolved amount of allantoin component, 50% ethyl alcohol-water solution [3] [wt.%]	Dissolved amount of allantoin component, 50% isopropyl alcohol-water solution [3] [wt.%]	Dissolved amount of allantoin component, 50% methyl alcohol-water solution [3] [wt.%]	Dissolved amount of allantoin component, water [3] [wt.%]
NC(=O)NC1NC(=O)NC1=O (stereo not shown) [Allantoin, allantoin]	0.3	1.0	6 (≈ 37.9 mM)	0.3	0.1	0.5	6 (≈ 37.9 mM)					
NC(=O)NC1NC(O)(NCCCC(N)C(=O)O)NC1=O (stereo not shown) [Allantoin/ornithine compound (B)]				12.3	6.6	26.2	405 (≈ 1400 mM)	9.0	6.7	3.6	14.3	22.1
NC(=O)NC1NC(O)(NCCCCC(N)C(=O)O)NC1=O (stereo not shown) [Allantoin/lysine compound (C)]				9.6	4.8	21.7	300 (≈ 986 mM)	8.9	5.0	2.5	11.3	15.6
N=C(NCCCC(N)C(=O)O)NC1(O)NC(=O)C(NC(N)=O)N1 (stereo not shown) [Allatoin/arginine (1:1) compound (A)]				19.8	9.9	43.3	603 (≈ 1810 mM)	8.5	9.4	4.6	20.2	28.2

— US4038287A, “Compounds of allantoin with basic amino acids” (Kawaken Fine Chemicals Co., Ltd., priority 1975, dated 1977)
